Data as given in the supplement of paper PMC12613149.

What was measured:
[1] = collision cross section (TIMS, N2 drift gas) of the primary ion; higher = larger gas-phase ion size
[2] = reversed-phase LC retention time (C18, 15 min MeOH gradient); higher = more hydrophobic / later elution
[3] = ionization mode: ESI+, ion species: [M+H]+
[4] = ionization mode: ESI+, ion species: [M]+
[5] = ionization mode: ESI-, ion species: [M-H]-

Compound	collision cross section [1, 3]	reversed-phase LC retention time [2, 3]	collision cross section [1, 5]	reversed-phase LC retention time [2, 5]	collision cross section [1, 4]	reversed-phase LC retention time [2, 4]
CCCCC(C#N)(Cn1cncn1)c1ccc(Cl)cc1 (stereo not drawn) [Myclobutanil]	175 Å²	14.5 min	–	–	–	–
CCCCCCCCCC[N+](C)(C)Cc1ccccc1 [Benzyldimethyldecylammonium]	–	–	–	–	183.77 Å²	14.7 min
CO/C=C(/C(=O)OC)c1ccccc1COc1cccc(C(F)(F)F)n1 [Picoxystrobin]	174.95 Å²	15.2 min	–	–	–	–
COC(=O)Nc1nc2ccccc2[nH]1 [Carbendazim]	137.16 Å²	7.33 min	–	–	–	–
C[Si](Cn1cncn1)(c1ccc(F)cc1)c1ccc(F)cc1 [Flusilazole]	176.25 Å²	15.2 min	–	–	–	–
C[C@]12CCC(=O)C=C1CC[C@@H]1[C@@H]2[C@@H](O)C[C@]2(C)C(=O)CC[C@@H]12 [4-Androsten-11beta-ol-3,17-dione]	174.44 Å²	12.8 min	–	–	–	–
Fc1ccc(Oc2ccnc3cc(Cl)cc(Cl)c23)cc1 [Quinoxyfen]	164.99 Å²	17.1 min	–	–	–	–
Oc1ccc(C(=C(Cl)Cl)c2ccc(O)cc2)cc1 [Bisphenol C]	–	–	164.81 Å²	14.5 min	–	–
CCCCCCCCCCCOC(=O)c1ccccc1C(=O)OCCCCCCCCCCC [Diundecylphthalate]	241.8 Å²	20.8 min	–	–	–	–
CC(C)N1C(=O)c2ccccc2NS1(=O)=O [Bentazone]	–	–	145.72 Å²	7.56 min	–	–
CCCCCCCCCCCCNC [N-Methyldodecylamine]	167.22 Å²	15.5 min	–	–	–	–
CO/N=C(/C(=O)OC)c1ccccc1CO/N=C(\C)c1cccc(C(F)(F)F)c1 [Trifloxystrobin]	188.81 Å²	16.3 min	–	–	–	–
COc1ccc2c(c1)[nH]c1c(C)nccc12 [Harmine]	145.04 Å²	9.71 min	145.84 Å²	13.5 min	–	–
C[N+]1(C)CCCCC1 [Mepiquat]	–	–	–	–	118.75 Å²	1.01 min
CO/N=C(/C1=NOCCO1)c1ccccc1Oc1ncnc(Oc2ccccc2Cl)c1F [Fluoxastrobin]	205.37 Å²	14.8 min	–	–	–	–
CCCCNC(=O)OCC#CI [3-Iodopropynyl butylcarbamate]	147.73 Å²	12.8 min	–	–	–	–
O=C(O)C(F)(OC(F)(F)C(F)(F)C(F)(F)F)C(F)(F)F (stereo not drawn) [HFPO-DA]	–	–	206.28 Å²	13 min	–	–
CC(C)(c1ccccc1)c1ccc(O)cc1 [4-Cumylphenol]	–	–	156.38 Å²	15.7 min	–	–
BrC1CCC(Br)C(Br)CCC(Br)C(Br)CCC1Br (stereo not drawn) [Hexabromocyclododecane (two peaks)]	–	–	178.05 Å²	18.9 min	–	–
CC(C)OC(=O)Nc1cccc(Cl)c1 [Chlorpropham]	–	–	147.2 Å²	14.7 min	–	–
NCC1(CC(=O)O)CCCCC1 [Gabapentin]	139.22 Å²	7.2 min	–	–	–	–
CC(C)N(C(=O)SCC(Cl)=C(Cl)Cl)C(C)C [Triallate]	162.33 Å²	17.2 min	–	–	–	–
Oc1ccc(Cc2ccc(O)cc2)cc1 [Bisphenol F]	–	–	152.1 Å²	11.9 min	–	–
CCOP(=S)(OCC)SCSP(=S)(OCC)OCC [Ethion]	176.99 Å²	16.9 min	–	–	–	–
CC(C)Oc1cccc(NC(=O)c2ccccc2C(F)(F)F)c1 [Flutolanil]	173.43 Å²	14.3 min	176.16 Å²	14.7 min	–	–
COc1ccc2c(c1)[C@]13CCCC[C@@H]1[C@H](C2)N(C)CC3 [Dextromethorphan]	166.66 Å²	11.4 min	–	–	–	–
CC(C)(c1ccccc1)c1cc(-n2nc3ccccc3n2)c(O)c(C(C)(C)c2ccccc2)c1 [UV-234]	219.51 Å²	19.7 min	–	–	–	–

Further lines, with some results ahead:

collision cross section [1, 3]	reversed-phase LC retention time [2, 3]	collision cross section [1, 5]	reversed-phase LC retention time [2, 5]	Compound	collision cross section [1, 4]	reversed-phase LC retention time [2, 4]
250.37 Å²	11.6 min	–	–	COc1cc(C2c3cc4c(cc3C(OC3OC5COC(C)OC5C(O)C3O)C3COC(=O)C23)OCO4)cc(OC)c1O (stereo not drawn) [Etoposide]	–	–
133.04 Å²	7.49 min	–	–	NC(=O)c1c(Cl)cccc1Cl [2,6-Dichlorobenzamide]	–	–
–	–	133.5 Å²	7.44 min	COc1cc2ccc(=O)oc2cc1O [Scopoletin]	–	–
148.13 Å²	9.29 min	–	–	CCC1(c2ccccc2)C(=O)NCNC1=O [Primidone]	–	–
164.06 Å²	12.3 min	–	–	CC(CN1c2ccccc2Sc2ccccc21)N(C)C (stereo not drawn) [Promethazin]	–	–
189.25 Å²	12.4 min	–	–	C[C@]12CCC(=O)C=C1CC[C@@H]1[C@@H]2[C@@H](O)C[C@@]2(C)[C@H]1CC[C@]2(O)C(=O)CO [Hydrocortisone]	–	–
168.69 Å²	16.4 min	–	–	CC(C)CC(C)(O)C#CC(C)(O)CC(C)C (stereo not drawn) [TMDD]	–	–
226.32 Å²	5.4 min	220.12 Å²	5.47 min	CC(=O)N(CC(O)CO)c1c(I)c(C(=O)NCC(O)CO)c(I)c(C(=O)NCC(O)CO)c1I (stereo not drawn) [Iohexol]	–	–
–	–	182.17 Å²	11.9 min	C[C@]12C=CC(=O)C=C1CC[C@@H]1[C@@H]2[C@@H](O)C[C@@]2(C)[C@H]1CC[C@]2(O)C(=O)CO [Prednisolone]	–	–
149.53 Å²	6.27 min	–	–	NC(N)=NC(=O)c1nc(Cl)c(N)nc1N [Amiloride]	–	–
153.27 Å²	6.39 min	152.72 Å²	5.71 min	Nc1ccc(S(=O)(=O)Nc2nccs2)cc1 [Sulfathiazole]	–	–
157.12 Å²	8.83 min	155.17 Å²	8.58 min	CCc1cccc(C)c1NC(=O)CS(=O)(=O)O	–	–
176.16 Å²	17 min	142.73 Å²	3.2 min	O=C(O)CCCCCCCCC(=O)O [Sebacic acid]	–	–
135.66 Å²	10.7 min	–	–	CCNC(=O)c1cccc(C)c1 [N-Ethyl-3-methylbenzamide]	–	–
130.01 Å²	5.38 min	–	–	O=C1NC(=O)C2CC=CCC12 (stereo not drawn) [Tetrahydrophthalimide]	–	–
173.87 Å²	11.2 min	–	–	CCCCNc1ccc(C(=O)OCCN(C)C)cc1 [Tetracain]	–	–
182.58 Å²	15.3 min	188.5 Å²	13.8 min	COc1ccc2c(c1)c(CC(=O)O)c(C)n2C(=O)c1ccc(Cl)cc1 [Indomethacin]	–	–
144.78 Å²	11.7 min	–	–	CC12CC3CC(C)(C1)CC(N)(C3)C2 [Memantine]	–	–

collision cross section [1, 3]	reversed-phase LC retention time [2, 3]	collision cross section [1, 5]	reversed-phase LC retention time [2, 5]	Compound	collision cross section [1, 4]	reversed-phase LC retention time [2, 4]
163.5 Å²	9.83 min	–	–	CC1CCN(CCCC(=O)c2ccc(F)cc2)CC1 [Melperon]	–	–
–	–	143.19 Å²	11.5 min	CCNS(=O)(=O)c1ccccc1C [N-Ethyl-o-toluenesulfonamide]	–	–
168.55 Å²	13.8 min	–	–	CN[C@H]1CC[C@@H](c2ccc(Cl)c(Cl)c2)c2ccccc21 [Sertraline]	–	–
225.08 Å²	11.8 min	–	–	CC1(C)CC(OC(=O)CCCCCCCCC(=O)OC2CC(C)(C)NC(C)(C)C2)CC(C)(C)N1 [Bis(2,2,6,6-tetramethyl-4-piperidyl)sebacate]	–	–
131.65 Å²	6.72 min	–	–	CCCN(CCC)CCC [Tripropylamine]	–	–
195.49 Å²	16.2 min	–	–	O=C(Nc1ccccc1)c1ccccc1SSc1ccccc1C(=O)Nc1ccccc1 [2,2'-Dithiobisbenzanilide]	–	–
170.07 Å²	9.96 min	170.58 Å²	6.81 min	COc1cc(NS(=O)(=O)c2ccc(N)cc2)nc(OC)n1 [Sulfadimethoxine]	–	–
153.65 Å²	12.3 min	–	–	Cc1c(C(C)C)c(=O)n(-c2ccccc2)n1C [Propyphenazone]	–	–
264.86 Å²	10.9 min	–	–	CCC1OC(=O)C(C)C(OC2CC(C)(OC)C(O)C(C)O2)C(C)C(OC2OC(C)CC(N(C)C)C2O)C(C)(O)CC(C)CN(C)C(C)C(O)C1(C)O (stereo not drawn) [Azithromycin]	–	–
142.4 Å²	7.19 min	–	–	Cc1c(N)c(=O)n(-c2ccccc2)n1C [4-Aminoantipyrine]	–	–
–	–	165.11 Å²	16.3 min	CC(=O)c1cc(C(C)(C)C)c(O)c(C(C)(C)C)c1 [3,5-Di-tert-butyl-4'-hydroxyacetophenone]	–	–
204.42 Å²	14.4 min	203.89 Å²	11.8 min	CCCCC(=O)N(Cc1ccc(-c2ccccc2-c2nn[nH]n2)cc1)C(C(=O)O)C(C)C (stereo not drawn) [Valsartan]	–	–
160.33 Å²	8.13 min	–	–	Cc1cccc(C(=O)O)c1N(Cn1cccn1)C(=O)C(=O)O [Metazachlor BH479-12]	–	–
–	–	122.39 Å²	9.34 min	O=Cc1c[nH]c2ccccc12 [Indole-3-carboxyaldehyde]	–	–
186.57 Å²	15.5 min	–	–	CO/N=C(/C(=O)O)c1ccccc1CO/N=C(\C)c1cccc(C(F)(F)F)c1	–	–
–	–	152.66 Å²	4.93 min	NS(=O)(=O)c1cc2c(cc1Cl)NCNS2(=O)=O [Hydrochlorothiazide]	–	–
163.11 Å²	11.9 min	163.45 Å²	10.6 min	O=C(CCc1ccc(O)cc1)c1c(O)cc(O)cc1O [Phloretin]	–	–
142.3 Å²	6.43 min	140.22 Å²	8.55 min	CC(C)(C)Nc1nc(N)nc(O)n1 [2-Hydroxydesethylterbuthylazine]	–	–
